This note sets out measurements from PubChem BioAssay AID1159558 (GlaxoSmithKline (GSK), 2015).

Calls of active or inactive are those of the source.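 Rule for the calls: active = IC50 against T. cruzi CYP51 below a set limit; inactive = the rest.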 Where only a bound is given, the exact number is not on record here.

Sequence of Sterol 14-alpha demethylase (Trypanosoma cruzi (strain CL Brener)) (Q7Z1V1 whole entry, looked up): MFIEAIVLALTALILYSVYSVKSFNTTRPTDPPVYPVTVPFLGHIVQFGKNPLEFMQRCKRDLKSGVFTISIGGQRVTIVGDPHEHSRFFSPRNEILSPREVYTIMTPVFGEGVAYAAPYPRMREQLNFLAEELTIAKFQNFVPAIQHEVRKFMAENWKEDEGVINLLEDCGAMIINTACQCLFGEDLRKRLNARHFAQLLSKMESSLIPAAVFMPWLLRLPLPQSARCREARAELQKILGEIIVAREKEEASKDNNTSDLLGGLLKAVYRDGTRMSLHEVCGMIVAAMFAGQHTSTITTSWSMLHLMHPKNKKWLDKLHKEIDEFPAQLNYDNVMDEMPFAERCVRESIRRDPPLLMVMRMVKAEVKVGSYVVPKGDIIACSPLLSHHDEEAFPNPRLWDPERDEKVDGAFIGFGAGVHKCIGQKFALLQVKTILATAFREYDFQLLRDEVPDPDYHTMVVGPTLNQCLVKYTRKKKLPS

This assay addresses Sterol 14-alpha demethylase (Trypanosoma cruzi (strain CL Brener)) (UniProt Q7Z1V1). The assay is described as follows: T. cruzi sterol 14-alpha demethylase inhibition – biochemical, recombinant enzyme, mechanism study for T. cruzi antiparasitic project, dose response (AID 1159558).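 Note: enzyme in bacterial membranes with Anopheles gambiae CYP reductase and cytochrome b5 partners.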 As to conditions: recombinant T. cruzi CYP51, BOMCC fluorescence.
Turning to `CCS(=O)(=O)c1cccc(C(=O)Nc2nc(-c3ccccn3)cs2)c1`, the IC50 (in general, the concentration at which inhibition is half-maximal) is 63 µM. Next, `NC(=O)c1ccsc1NC(=O)c1ccc([N+](=O)[O-])s1`: > 100 µM (inactive); `COc1cccc(-c2cc(C(F)(F)F)nc(-n3ccc([N+](=O)[O-])n3)n2)c1`: > 100 µM (inactive); `COc1cc(Nc2nccc(Nc3onc(C)c3C)n2)cc(S(=O)(=O)C2CCOCC2)c1`: 7.9 µM. The same measure for `Cc1ccc2c(c1)-c1onc(C(=O)N3CCCCC3c3cccnc3)c1CO2` (stereo unspecified): 0.1 µM; for `CN1CCC(N(C)c2nccc(N3CCN(C(=O)c4cccc(-c5cccnc5)c4)CC3)n2)CC1`: 1.6 µM; for `COc1ccc(NS(=O)(=O)c2cc(NC(=O)Cc3ccc(C)cc3)ccc2N2CCOCC2)cc1`: > 100 µM (inactive). Next, `Cc1nc(-c2ccc3c(c2)OCO3)sc1C(=O)NCc1ccc2c(c1)OCO2`: 5 µM. As for `COc1ccc2ncc(=O)n(CCN3CCC(NCc4ccc(-c5cccs5)cc4)CC3)c2n1`, the IC50 is 25 µM. The same measure for `CC(CCc1ccccc1)NC(=O)CN(Cc1ccccn1)Cc1ccccn1` (stereo unspecified): 63 µM. The same measure for `Cc1cn[nH]c1C1CCCN(Cc2nc3ccccc3n2C)C1` (stereo unspecified): 1.3 µM; for `N#Cc1cccc(Nc2nccc(N3CCC(NS(=O)(=O)c4cccc(C#N)c4)CC3)n2)c1`: 7.9 µM; for `O=C(CC1(O)C(=O)N(Cc2cccs2)c2ccc(Br)cc21)c1cccnc1` (stereo unspecified): 13 µM. With `c1cncc(CN(Cc2ccco2)Cc2cn[nH]c2-c2cccs2)c1`, the IC50 was 0.079 µM. The same measure for `O=C(NCC1CCCCC1)c1cnns1`: > 100 µM (inactive); for `COc1cnc2ccc(=O)n(CCN3CCC(NC(=O)c4ccc(Cl)cc4)CC3)c2c1`: 10 µM. Next, `O=C(NCCc1ccn(-c2ccccc2)n1)C1CCCCC1`: 100 µM. Consider `CC(C)COC(=O)Nc1ccc(N2CCC(CNS(=O)(=O)c3ccccc3)CC2)c(F)c1`, for which the IC50 is 2 µM. The same measure for `O=C(CN(Cc1ccccn1)Cc1ccccn1)NCc1ccc(-c2csnn2)cc1`: 40 µM; for `COc1ccccc1-c1c(C)[nH]c2nc(N)nc(C)c12`: > 100 µM (inactive). The same measure for `COc1cnc2ccc(=O)n(CCN3CCC(NC(=O)Cc4ccc(Cl)c(Cl)c4)CC3)c2c1`: 0.79 µM. Next, `CC(C(=O)Nc1ccc(Br)cc1)N1CCN(c2ccc([N+](=O)[O-])cc2)CC1` (stereo unspecified): 40 µM. Take `CCc1nn(-c2ncc(F)c(NC(C)C)n2)c(N)c1C1CCCCC1`: the IC50 was > 100 µM (inactive). Next, `COc1ccc(S(=O)(=O)Nc2ccc(CN3CCN(C(=O)c4cccc(C#N)c4)CC3)cc2)cc1`: > 100 µM (inactive). The same measure for `O=C1NCCn2ccc(Nc3nc(NC4CCC(O)CC4)ncc3Cl)c21` (stereo unspecified): > 100 µM (inactive); for `CC(C)(C)Nc1nc(-c2ccccn2)nc2ccccc12`: > 100 µM (inactive); for `CCn1c(-c2nonc2N)nc2c([C@@H](C)O)ncc(O[C@H](CN)c3ccccc3)c21`: 25 µM. On to `CN(CC1CCCO1)S(=O)(=O)c1ccc(C(=O)Nc2nc(-c3ccccn3)cs2)cc1` (stereo unspecified), for which the IC50 was 7.9 µM.

In the case of `NCC(Cc1ccccc1)NC(=O)c1cnc(-c2c[nH]c3ncccc23)s1` (stereo unspecified), the IC50 was 1 µM. The same measure for `O=C(Nc1ccc(Br)cn1)c1ccc(Cn2cnc([N+](=O)[O-])n2)cc1`: > 100 µM (inactive); for `CCN(CC)c1nc(N(C)C)nc2c1CN(Cc1ccccc1)CC2`: 10 µM; for `Cc1nn(C2CCS(=O)(=O)C2)c(C)c1CN(C)C(=O)C=Cc1sc2ccccc2c1Cl` (stereo unspecified): 0.032 µM. Next, `O=C(Nc1nc(-c2ccc(S(=O)(=O)N3CCOCC3)cc2)cs1)c1ccc([N+](=O)[O-])cc1`: > 100 µM (inactive); `Cc1ccc(S(=O)(=O)Nc2ccc(CN3CCN(C(=O)c4cccc(C)c4)CC3)cc2)cc1`: 79 µM. Next, `COCc1cc(Nc2ccccc2)nc(-c2ccccn2)n1`: > 100 µM (inactive); `COc1cc(-c2noc(CC#N)n2)ccc1OC(F)F`: 100 µM; `COCCn1c(-c2ccccc2)cnc1NCc1ccccc1OC`: 7.9 µM. Take `CCOC(=O)c1noc(N)c1-c1ccccc1`: the IC50 is > 100 µM (inactive). Next, `COc1ccc(C2C3CCCCC3(O)CCN2CC(=O)Nc2ccc(Cl)cc2Cl)cc1` (stereo unspecified): 10 µM; `CC(=Cc1ccccc1)CN1CCC(=O)N(Cc2cccnc2)CC1`: 0.1 µM. Next, `CN(Cc1nc2c(C(=O)N3CCN(Cc4ccccc4)CC3)cccc2[nH]1)C1CCCc2cccnc21` (stereo unspecified): 40 µM; `CCOc1ccc(N(C)S(=O)(=O)c2ccc3[nH]cc(C(=O)NC4CCCC4)c(=O)c3c2)cc1`: 6.3 µM; `O=C(CN(c1cccc(C(F)(F)F)c1)S(=O)(=O)c1ccc(Cl)cc1)NCc1ccc(F)c(F)c1`: 0.16 µM.

`CC(c1cc(Cl)cc(Cl)c1)N(C)c1ncc2c(N)nc(N)nc2n1` (stereo unspecified): the IC50 was 40 µM.

Consider `CC1(Oc2cncc(Cl)c2)CCN(Cc2cc3ccccc3[nH]2)C1` (stereo unspecified), for which the IC50 is 10 µM. Next, `Cc1cccc(N2CCCN(Cc3c[nH]c4ccccc34)CC2)n1`: > 100 µM (inactive); `C[C@@H](Oc1cc(-n2cnc3ccc(O[C@H]4CCNC4)cc32)sc1C(N)=O)c1ccccc1Cl`: 1.3 µM. The same measure for `NS(=O)(=O)c1ccc(CNC(=O)c2ccc([N+](=O)[O-])s2)cc1`: 40 µM. The same measure for `N#Cc1cc(N2CCCC2=O)ccc1Sc1ccccc1CO`: 20 µM; for `CC(=O)Nc1ccc(-c2ccnc(Nc3cccc(C#N)c3)n2)cc1`: 25 µM; for `CC1CN(S(=O)(=O)c2ccc(NC(=O)c3cc(C4CC4)nc4c3cnn4C(C)C)cc2)CC(C)O1` (stereo unspecified): > 100 µM (inactive).

As for `CC(C)n1c(-c2nonc2N)nc2cccc(OCCN3CCCC3)c21`, the IC50 is 40 µM.

In the case of `N#Cc1cc(-c2ccnc(Nc3cccc(CN4CCOCC4)c3)n2)ccc1NCCN`, the IC50 was 32 µM.

As to `C=CCn1nc([N+](=O)[O-])nc1Oc1ccc(Cl)cc1Cl`, the IC50 was 20 µM. On to `COc1ccc(Cc2nc(-c3ncc4cccnc4c3O)n[nH]2)cc1OC`, for which the IC50 is > 100 µM (inactive). Next, `CCN(CC)c1nc(Nc2ccncc2)nc2ccccc12`: > 100 µM (inactive); `COc1ccc(C(=O)NC2CCN(CCn3c(=O)ccc4ncc(F)cc43)CC2)cc1Cl`: 16 µM; `Cc1cc(NC(=O)C2CC2)ccc1OC1CCN(Cc2ccco2)CC1`: 63 µM.

For `Cc1nn(-c2nc(N)nc(-c3ccccn3)n2)c(N)c1-c1ccccc1`, the IC50 was > 100 µM (inactive). The same measure for `COc1ccc(CNc2nsc3ccccc23)cc1OC`: 13 µM. For `COc1ccc(C(=O)N2CCC(Nc3cccnc3)C2)c(OC)n1` (stereo unspecified), the IC50 is 0.063 µM.

Take `O=C(Cc1ccc2c(c1)CCC2)Nc1n[nH]c(-c2ccccn2)n1`: the IC50 was 2.5 µM. `Cc1cccc(Nc2nc(-c3ccccn3)cs2)n1`: the IC50 was 20 µM.

With `COc1ccc(CN(C)Cc2ccncc2)cc1-c1ccc(S(=O)(=O)NC2CCC2)s1`, the IC50 is 0.079 µM.

As to `CC(=O)NCCNc1cc(-c2ccnc(Nc3cccc(Cl)c3)n2)ccn1`, the IC50 is 5 µM. `COc1ccc2ncc(F)c(NC(=O)C3(O)CCC(NCc4ccc5c(c4)OCCO5)CC3)c2n1` (stereo unspecified): the IC50 is 63 µM.
